# Values quoted from earlier work in patent publication US8329187B2, “Compositions of spores of non pathogenic bacteria” (Neuroscienze Pharmaness S.C. A.R.L., priority 2009, dated 2012).
# Tested on: gastrointestinal transit
# Details: shown in example 6 of EP 1,602,658
compound,measurement,value
Cc1c(C(=O)c2cccc3ccccc23)c2cccc3c2n1[C@H](CN1CCOCC1)CO3 [WIN 55.212-2],effect on gastrointestinal transit (constipating activity),slackens the gastrointestinal transit
